Laboratory results published in patent publication US20160324153A1, “HERBICIDAL MIXTURE COMPRISING IMAZETHAPYR AND CYCLOXYDIM” (BASF AGROCHEMICAL PRODUCTS, priority 2014, published 2016).

Columns and labels:
Type in all cases: in vivo
ORYSA (Orysa sativa) = assay: Post emergence treatment, herbicidal activity against ORYSA
From the text: (§1) Synergism can be described as an interaction where the combined effect of two or more compounds is greater than the sum of the individual effects of each of the compounds. The presence of a synergistic effect in terms of percent control, between two mixing partners (X and Y) can be calculated using the Colby equation (Colby, S. R., 1967, Calculating Synergistic and Antagonistic Responses in Herbicide Combinations, Weeds, 15, 21-22): When the observed combined control effect is greater than the expected (calculated) combined control effect (E), then the combined effect is synergistic. […] However, the weed control afforded by the compounds, mixtures or compositions is not limited to these species. The analysis of synergism or antagonism between the mixtures or compositions was determined using Colby's equation. Analogously, the Colby's equation can be used to determine synergism of 3-way and higher mixtures. Post Emergence Treatment by the Mixture of Imazethapyr+Cycloxydim Post Emergence Treatment by the Mixture of (Imazethapyr+Imazamox)+Cycloxydim

LEFFA (Leptochloa fusca) = assay: Post emergence treatment, herbicidal activity against LEFFA; details: Example 1, post emergence
From the text: as §1, with “Imazethapyr+Cycloxydim” for “Imazethapyr+Cycloxydim Post Emergence Treatment by the Mixture of (Imazethapyr+Imazamox)+Cycloxydim”

[1] = system: ECHCO (Echinochloa colonum); assay: Post emergence treatment, herbicidal activity against ECHCO
From the text: as §1

[2] = system: PHACA (Phalaris canariensis); assay: Post emergence treatment, herbicidal activity against PHACA; details: Example 2, post emergence
From the text: as §1, with “of” for “of Imazethapyr+Cycloxydim Post Emergence Treatment by the Mixture of”

[3] = system: BRAPL (Brachiaria plantaginea); assay: Post emergence treatment, herbicidal activity against BRAPL; details: Example 2, post emergence; Cycloxydim 3 g ai/ha
From the text: as §1, with “of” for “of Imazethapyr+Cycloxydim Post Emergence Treatment by the Mixture of”

[4] = Example 1, post emergence, Imazethapyr 7.5 g ai/ha
[5] = Example 1, post emergence, Cycloxydim 6 g ai/ha

| Structure (SMILES) | Herbicidal activity against ORYSA, Found (ORYSA (Orysa sativa); [4]) | Herbicidal activity against LEFFA, Found (LEFFA (Leptochloa fusca); Imazethapyr 7.5 g ai/ha) | Herbicidal activity against ECHCO, Found [1, 4] | Herbicidal activity against ORYSA, Found (ORYSA (Orysa sativa); [5]) | Herbicidal activity against ORYSA, Found (ORYSA (Orysa sativa); Example 2, post emergence, Cycloxydim 6 g ai/ha) | Herbicidal activity against PHACA, Found ([2]; the 3rd table, Cycloxydim 3 g ai/ha) | Herbicidal activity against PHACA, Found ([2]; the 5th table, Cycloxydim 3 g ai/ha) | Herbicidal activity against PHACA, Found ([2]; Cycloxydim 6 g ai/ha) | Herbicidal activity against LEFFA, Found (LEFFA (Leptochloa fusca); Cycloxydim 6 g ai/ha) | Herbicidal activity against BRAPL, Found [3] | Herbicidal activity against ECHCO, Found [1, 5] | Herbicidal activity against ECHCO, Found ([1]; Example 2, post emergence, Cycloxydim 3 g ai/ha) |
| --- | --- | --- | --- | --- | --- | --- | --- | --- | --- | --- | --- | --- |
| CCc1cnc(C2=NC(C)(C(C)C)C(=O)N2)c(C(=O)O)c1 (racemic) [Imazethapyr, 5-ethyl-2-[(RS)-4-isopropyl-4-methyl-5-oxo-2-imidazolin-2-yl]nicotinic acid] | 50 | 55 | 85 |  |  |  |  |  |  |  |  |  |
| CCCC(=NOCC)C1=C(O)CC(C2CCCSC2)CC1=O (racemic) [Cycloxydim, (5RS)-2-[(EZ)-1-(Ethoxyimino)butyl]-3-hydroxy-5-[(3RS)-thian-3-yl]cyclohex-2-en-1-one] |  |  |  | 20 | 20 | 0 | 0 | 60 | 40 | 0 | 50 | 0 |
